According to EP0341661A2, “Peptide-drug compositions containing alpha-aminoboronic acid derivatives” (THE DU PONT MERCK PHARMACEUTICAL COMPANY, priority 1988, dated 1989):
Where a name gives a salt, the structure may show the parent alone.

Legend:
aminopeptidases [1] = experiment: In situ nasal perfusion: degradation of 100 µM leucine enkephalin in the nasal perfusate; type: in vivo, Sprague-Dawley rats; details: 0.01 µM Boroleucine (title: 0.1 µM), 60 min
aminopeptidases [2] = experiment: as above; type: in vivo, Sprague-Dawley rats; details: for % Leucine Enkephalin Remaining: 0.1 µM inhibitor
Description: In order to evaluate the effectiveness of the α-aminoboronic acid derivative inhibitors of this invention, an animal model was used (according to A. Hussain, J. Furaj, A. Yukihiko and J. E. Truelove, Biochem. Biophys. Res. Com. 133, 923, 1985) to assess the degradation of proteins and peptides in situ and in vivo in situ in the nasal cavity of rats. The method involved the use of Sprague-Dawley rats weighing approximately 300 grams. Each rat was anesthetized with sodium pentobarbitol (50 mg/kg). An incision was made in the neck and the trachea was canulated with PE 240 tubing. For the in situ studies, a second tube, which served to introduce the perfusing solution, was inserted through the esophagus to the posterior part of the nasal cavity. The nasopalatine was closed with an adhesive to prevent drainage of the perfusing solution from the nasal to the oral cavity. For the in vivo in situ studies, the esophagus was canulated using PE 240 tubing closed at one end. The closed end was pushed to the posterior end of the nasal passage and then tied in place. The nasopalatine was closed with an adhesive to prevent drainage of the perfusing solution from the nasal to the oral cavity. The rats were dosed in one nostril with 50 µl of peptide solution in two forms; the control solution had no inhibitor added, the test solution had inhibitor added at concentrations specified in the examples shown below. The dosing solution was 0.1 M phosphate buffer (pH 7.4). At certain time intervals (one rat/time interval), the drug was washed from the nose via the other nostril with 10 ml of 0.1 M phosphate buffer (pH 3.8) using a peristaltic pump. The nasal washing was then placed in a 10 ml volumetric flask and adjusted to 10 ml with the same buffer and analyzed for the peptide by HPLC. The analysis of leucine enkephalin and its major metabolite involved taking aliquots of samples, diluting them with 200 µl of 0.1 M citric acid (pH 2.3) to quench hydrolysis and subjecting the samples to analysis (for in vivo in situ studies, the washings were injected as they were obtained). High Pressure Liquid Chromatography (HPLC) was run on a 4.6 x 250 mm C₈ column. The mobile phase consisted of 0.1 M NaH₂PO₄-H₃PO₄-acetonitrile (916 : 5 : 275) and was delivered at a flow rate of 1.7 ml/min. Detection was by UV at 210 nm. Retention times for leucine enkephalin and its major degradation product, Des-Tyr-leucine enkephalin were 7.3 and 4.8 min., respectively. Data were calculated as % of leucine enkephalin remaining in the nasal perfusate as a function of time, counting the concentration at zero time as 100%. In this example, a 10 ml solution of 0.1 M phosphate buffer solution (pH 7.4) containing 100 µM leucine enkephalin (the peptide) in the absence or presence of 0.1 µM 3-methyl-1(4,4,5,5-tetramethyl-1,3,2-dioxaborolane-2-yl)-1-butamine, trifluoroacetic acid salt (boroleucine) as the inhibitor was perfused nasally in rats as described above. A 10 ml portion of the peptide solution was placed in a water-jacketed container, maintained at 37°C and circulated through the nasal cavity of rats using a peristaltic pump. The perfusing solution was passed through the nasal cavity, out the nostrils, through a funnel, and returned to the water-jacketed container. The perfusate was analyzed by the ANALYTICAL METHOD described above.

SMILES: CC(C)CC(N)B1OC(C)(C)C(C)(C)O1 (stereo not drawn) [boroleucine, 3-methyl-1(4,4,5,5-tetramethyl-1,3,2-dioxaborolane-2-yl)-1-butamine, trifluoroacetic acid salt]
- % of leucine enkephalin remaining in the nasal perfusate (aminopeptidases [1]): 88.8±2.6%
- % of leucine enkephalin remaining in the nasal perfusate (aminopeptidases [2]; 0.01 µM Boroleucine (title: 0.1 µM), 0 min): 100.0±0.0%
- % of leucine enkephalin remaining in the nasal perfusate (aminopeptidases [2]; 0.01 µM Boroleucine (title: 0.1 µM), 5 min): 96.6±1.5%
- % of leucine enkephalin remaining in the nasal perfusate (aminopeptidases [2]; 0.01 µM Boroleucine (title: 0.1 µM), 10 min): 93.5±3.0%
- % of leucine enkephalin remaining in the nasal perfusate (aminopeptidases [2]; 0.01 µM Boroleucine (title: 0.1 µM), 20 min): 96.4±1.7%
- % of leucine enkephalin remaining in the nasal perfusate (aminopeptidases [2]; 0.01 µM Boroleucine (title: 0.1 µM), 30 min): 92.7±3.3%
- % of leucine enkephalin remaining in the nasal perfusate (aminopeptidases [2]; 0.01 µM Boroleucine (title: 0.1 µM), 45 min): 91.8±2.5%
- % of leucine enkephalin remaining in the nasal perfusate (aminopeptidases [2]; 0.01 µM Boroleucine (title: 0.1 µM), 90 min): 85.7±3.5%
- % of leucine enkephalin remaining in the nasal perfusate (aminopeptidases [2]; 0.01 µM inhibitor, 0 min): 100.0±0.0%
- % of leucine enkephalin remaining in the nasal perfusate (aminopeptidases [2]; 0.01 µM inhibitor, 10 min): 90.6±3.5%
- % of leucine enkephalin remaining in the nasal perfusate (aminopeptidases [2]; 0.01 µM inhibitor, 20 min): 89.1±5.3%
- % of leucine enkephalin remaining in the nasal perfusate (aminopeptidases [2]; 0.01 µM inhibitor, 30 min): 79.1±2.9%
- % of leucine enkephalin remaining in the nasal perfusate (aminopeptidases [2]; 0.01 µM inhibitor, 45 min): 74.9±2.8%
- % of leucine enkephalin remaining in the nasal perfusate (aminopeptidases [2]; 0.01 µM inhibitor, 60 min): 69.2±2.0%
- % of leucine enkephalin remaining in the nasal perfusate (aminopeptidases [2]; 0.01 µM inhibitor, 90 min): 56.2±1.6%
- % of leucine enkephalin remaining in the nasal perfusate (aminopeptidases [2]; 0.03 µM inhibitor, 0 min): 100.0±0.0%
- % of leucine enkephalin remaining in the nasal perfusate (aminopeptidases [2]; 0.03 µM inhibitor, 5 min): 94.1±1.7%
- % of leucine enkephalin remaining in the nasal perfusate (aminopeptidases [2]; 0.03 µM inhibitor, 10 min): 93.6±1.6%
- % of leucine enkephalin remaining in the nasal perfusate (aminopeptidases [2]; 0.03 µM inhibitor, 20 min): 91.8±2.2%
- % of leucine enkephalin remaining in the nasal perfusate (aminopeptidases [2]; 0.03 µM inhibitor, 30 min): 88.3±1.4%
- % of leucine enkephalin remaining in the nasal perfusate (aminopeptidases [2]; 0.03 µM inhibitor, 45 min): 85.7±1.3%
- % of leucine enkephalin remaining in the nasal perfusate (aminopeptidases [2]; 0.03 µM inhibitor, 60 min): 81.5±1.4%
- % of leucine enkephalin remaining in the nasal perfusate (aminopeptidases [2]; 0.03 µM inhibitor, 90 min): 72.9±1.0%
- order of inhibition of degradation (aminopeptidases [2]; 0.1 µM boroleucine, 10 µM bestatin, 100 µM puromycin): boroleucine> bestatin> puromycin
- % Leucine Enkephalin Remaining (aminopeptidases [2]; 0 min): 100.0±0.0%
- % Leucine Enkephalin Remaining (aminopeptidases [2]; 5 min): 96.6±1.5%
- % Leucine Enkephalin Remaining (aminopeptidases [2]; 10 min): 93.5±3.0%
- % Leucine Enkephalin Remaining (aminopeptidases [2]; 20 min): 96.4±1.7%
- % Leucine Enkephalin Remaining (aminopeptidases [2]; 30 min): 92.7±3.3%
- % Leucine Enkephalin Remaining (aminopeptidases [2]; 45 min): 91.8±2.5%
- % Leucine Enkephalin Remaining (aminopeptidases [2]; 60 min): 88.8±2.6%
- % Leucine Enkephalin Remaining (aminopeptidases [2]; 90 min): 85.6±3.5%
- comparison of the inhibitory effect of equimolar concentrations (aminopeptidases [2]; 0.1 µM of each inhibitor): superior to boroalanine
